# How the values were obtained:
# [1] = tested on: PI3K; experiment: PI3K assay on immunoprecipitates from treated fetal ICCs; assay type: cell-based, human; conditions: for control PI3K activity eliminated, p85 immunoprecipitates: 100 nM wortmannin or 10 μM Ly294002, 5 d
# Text: (§1) The use of human fetal tissue for these studies was reviewed and approved by the Institutional Review Board at our university. Human fetal pancreases at 18-24 gestational wk were obtained with appropriate permissions and patient consent through nonprofit organ procurement programs (Advanced Bioscience Resources, Oakland, Calif.; Anatomic Gift Foundation, Laurel, Md.). Experiments were started by the enzymatic digestion with collagenase P (Boehringer Mannheim Corp., Indianapolis, Ind.) of the human fetal pancreases followed by tissue culture for 5 d, which led to the formation in vitro of ICCs, as previously described in detail (Otonkoski et al. (1993) J. Clin. Invest. 92:1459-1466).
# PI3K inhibitors, NIC, or HGF/SF were added to the culture medium from the very beginning. Medium plus factor was changed every day for 5 d. For direct comparison, portions of the same pancreases were grown, treated with factors, and used for transcriptional analyses, insulin content and secretion, PI3K activities, and DNA synthesis.
# (§2) Aliquots of cell lysates normalized for protein content were incubated for 3 h with antiPI3K antibodies directed against the 85kD regulatory subunit or with antiphosphotyrosine antibodies (Upstate Biotechnology, Inc., Lake Placid, N.Y.). The immune complexes were absorbed onto protein A-Sepharose and washed as described (Ptasznik et al. (1995) J. Biol. Chem. 270:19969-19973). PI3K assays were performed directly on beads. Briefly, the reaction was carried out for 10 min in a buffer containing 40 mM Hepes, pH 7.2, 6 mM MgCl2, 1 mM EDTA, […] (Avanti Polar Lipids, Alabaster, Ala.), […], and 10 mCi [γ^32P]ATP (6,000 Ci/mmol; DuPont/NEN, Wilmington, Del.). Adenosine (0.2 mM) was added to the reaction mixture to inhibit residual PI 4 kinase activity. After the incubation, the reaction was stopped with methanol plus 2.4 N HCl (1:1, vol/vol), and lipids were extracted, analyzed by thin-layer chromatography, and quantified as described previously (Ptasznik et al. (1995) J. Biol. Chem. 270:19969-19973). In some experiments, the direct binding of PI3K to p190Met after HGF/SF stimulation of islet cells was determined, as previously described in detail (Graziani, et al. (1991) J. Biol. Chem. 266:22087-22090).
# [2] = tested on: PIP3; experiment: Determination of total cellular PIP3 in [32P]orthophosphate-labeled ICCs; assay type: cell-based, human
# Description: The ICCs, which were pretreated for 5 d with PI3K inhibitors, NIC, HGF/SF, or control buffer, were subsequently harvested and suspended at a concentration of 2 3 10 5 cells/ml in buffer A (30 mM Hepes, pH 7.2, 110 mM NaCl, 10 mM KCl, 1 mM MgCl2, 10 mM glucose), and 1 mCi/ml [^32P]orthophosphate ([…]; DuPont/NEN) was added. The cells were incubated at 37° C. for 2 h and then washed 3× with buffer A. Depending on the type of experiment, the labeled islet cells were either directly lysed by addition of 3 ml chloroform/methanol (1:2, vol/vol), followed by 4 ml chloroform/2.4 M HCl (1: 1, vol/vol) (to measure basal levels of PIP3 ), or labeled cells were first stimulated with 25 ng/ml HGF/SF for the indicated times, and subsequently the reaction was stopped as above (to measure the inducible levels of PIP3 ). Phospholipids were extracted and analyzed by thinlayer chromatography, and the total cellular PIP3 was quantified, as we described previously in detail (Ptasznik et al. (1996) J. Biol. Chem. 271 :25204-25207).
# [3] = tested on: islet hormone gene expression in human fetal ICCs; conditions: earlier publications; cited from earlier work
# [4] = tested on: islet hormone gene expression in human fetal ICCs; experiment: Multiprobe ribonuclease protection assay of islet hormone mRNA; assay type: cell-based; conditions: ICCs 5 d, 100 nM wortmannin or 10 μM Ly294002, FIG. 1
# Text: The use of human fetal tissue for these studies was reviewed and approved by the Institutional Review Board at our university. Human fetal pancreases at 18-24 gestational wk were obtained with appropriate permissions and patient consent through nonprofit organ procurement programs (Advanced Bioscience Resources, Oakland, Calif.; Anatomic Gift Foundation, Laurel, Md.). Experiments were started by the enzymatic digestion with collagenase P (Boehringer Mannheim Corp., Indianapolis, Ind.) of the human fetal pancreases followed by tissue culture for 5 d, which led to the formation in vitro of ICCs, as previously described in detail (Otonkoski et al. (1993) J. Clin. Invest. 92:1459-1466). […] Transcriptional analyses on total RNA ([…]) were performed using a multiprobe ribonuclease protection assay, as previously described (Otonkoski et al. (1993) J. Clin. Invest. 92:1459-1466). The housekeeping gene cyclophilin was used as an internal control, and yeast tRNA (10 μM) was included as a negative control. Probes used were of human origin and were described previously (Otonkoski et al. (1993) J. Clin. Invest. 92:1459-1466). Target RNAs were quantitated in autoradiographs by scanning densitometry (LKB UltroScan XL Laser) and integrated using Gel Scan XL software (Pharmacia LKB Biotechnology, Inc., Piscataway, N.J.). The probe-specific mRNA signals were normalized to the cyclophilin signal in each sample to account for differences in sample loading between lanes.
# [5] = tested on: human fetal ICCs; experiment: Insulin content and insulin release of ICCs; assay type: cell-based
# Text: as §1, with “92:1459-1466). […] After incubation with various factors in culture, the ICCs were harvested, and measurements of insulin content, insulin release in response to glucose plus theophylline, and [^3H]thymidine incorporation into DNA were performed as described previously (Otonkoski et al. (1993) J. Clin. Invest. 92:1459-1466).” for “92:1459-1466).”
# [6] = tested on: human fetal ICCs; experiment: [3H]thymidine incorporation into DNA; assay type: cell-based; conditions: ICCs 5 d with inhibitor, FIG. 4A
# Description: After incubation with various factors in culture, the ICCs were harvested, and measurements of insulin content, insulin release in response to glucose plus theophylline, and [^3H]thymidine incorporation into DNA were performed as described previously (Otonkoski et al. (1993) J. Clin. Invest. 92:1459-1466).
# [7] = tested on: human fetal ICCs; experiment: Triple immunofluorescence, confocal microscopy and morphometric analysis; assay type: cell-based
# Description: ICCs cultured for 5 d in either control medium or medium containing 10 μM Ly 294002 were paraffin embedded, and […] sections were stained for hormone immunoreactivity. To simultaneously identify cells producing insulin, glucagon, somatostatin, and pancreatic polypeptide (pp), we followed a modification of our previous protocol for multiple labeling (Otonkoski et al. (1996) J. Clin. Invest. 79:351-358). Briefly, sections were incubated for 1 h at room temperature with a mixture of primary antibodies: IgG fraction of a sheep anti-human insulin antiserum (The Binding Site, Birmingham, England) ([…]), mouse monoclonal anti-human glucagon (Sigma Chemical Co.) (1 mg/ml), rabbit anti-human somatostatin antiserum (Dako Corporation, Carpinteria, Calif.) (used at 1:100 dilution), and rabbit anti-human pp antiserum (Chemicon International, Inc., Temecula, Calif.) (used at 1:100 dilution). In separate sections, a mixture of normal sheep, rabbit, and mouse IgGs was used as control reference for specificity of primary antibodies. After washings in PBSDS (5 mM glycine, 0.2% donkey serum, 0.1% BSA), sections were incubated for 1 h at room temperature with a cocktail of F(ab′)2 fractions from secondary antibodies: lissamine-rhodamine-conjugated affinity-purified donkey anti-sheep IgGs ([…]); FITC-conjugated affinity-purified donkey anti-rabbit IgGs ([…]); and indodicarbocyanine-conjugated affinity-purified donkey anti-mouse IgGs ([…]). All F(ab′)2 were preadsorbed on appropriate multiple species to eliminate the possibility of crossreactivity in multiple labeling protocols (Jackson ImmunoResearch Labs, Inc., West Grove, Pa.). The sections were processed as previously described (Otonkoski et al. (1996) J. Clin. Invest. 79:351-358) and viewed on a laser scanning confocal microscope (model MRC1024; BioRad Laboratories, Hercules, Calif.).
# Sections were prepared from control and Ly294002 treated ICCs from three independent experiments. […] All images collected (one image per section) were then analyzed for total surface area and insulin, glucagon, somatostatin, and positive cell surface area by using measurement tools in the software NIH Image 1.60 (National Institutes of Health, Bethesda, Md.). Data were analyzed in Stat View 4.01 (Abacus Concepts, Inc., Berkeley, Calif.) for calculation of mean, standard deviation, and parametric statistic (t test).
# [8] = tissue culture medium; cited from earlier work
# [9] = tested on: fetal pancreatic cells growing as islet-like cell clusters; experiment: Cytotoxicity and apoptosis in culture
# [10] = tested on: PI3K; experiment: Direct effect on PI3K activity in vitro in p85 immunoprecipitates; assay type: biochemical, human; conditions: various concentrations of NIC
# Description: as §2
# [11] = tested on: purified fetal islets; experiment: Endocrine function in purified fetal islets; assay type: cell-based, human
# Description: Effects of PI3K inhibitors on endocrine function were tested not only in ICCs, but also in purified islets. Undifferentiated epithelial cells account for z75-80% of the total cell mass in ICCs. By contrast, purified fetal islets contain about 10 fold fewer undifferentiated epithelial cells (Beattie et al. (1996) Diabetes. 46:244-248). Purification of human fetal pancreatic islets was performed as recently described (Beattie et al. (1996) Diabetes. 46:244-248). Fetal islets, identified as homogeneous differentiated clusters of dithizonepositive cells, were incubated with factors as above.
# [12] = tested on: p85 protein; experiment: Western blotting of p85 protein; assay type: cell-based, human; conditions: during NIC treatment
compound,measurement,setting,value
hepatocyte growth factor/scatter factor [HGF/SF],cellular PI3K activity after acute stimulation,"[1]; 25 ng/ml HGF/SF, ICCs starved 24 h, antiphosphotyrosine immunoprecipitates, FIG. 5",robustly activated
same,increase in levels of PIP3,"[2]; ICCs growing continuously (5 d) with 25 ng/ml HGF/SF, FIG. 6",threefold
same,insulin and glucagon gene transcription and insulin protein biosynthesis,[3],marked down-regulation
"O=c1cc(N2CCOCC2)oc2c(-c3ccccc3)cccc12 [Ly294002, 2-(4-Morpholinyl)-8-phenyl-4 H-1-benzopyran-4-one]","control PI3K activity eliminated, p85 immunoprecipitates",[1]; FIG. 7,90%
same,rise in PIP3 formation stimulated by growth factors,"[2]; 100 nM wortmannin or 10 μM Ly294002, intact labeled islet cells",almost completely inhibited
same,transcriptional level of glucagon,[4],increased
same,transcriptional level of insulin,[4],increased
same,transcriptional level of somatostatin,[4],increased
same,insulin content per cellular DNA versus untreated control,"[5]; ICCs cultured 5 d with inhibitor, FIG. 2A",significantly increased
same,insulin secretion per cellular DNA versus untreated control,"[5]; ICCs cultured 5 d with inhibitor, glucose plus theophylline, FIG. 2B",significantly increased
same,[3H]thymidine incorporation into DNA,[6],significantly decreased
same,increase in the total percentage of endocrine-positive cells versus control ICCs,"[7]; 10 μM Ly294002, 5 d",4.4 fold
same,frequency of cells coexpressing multiple hormones,"[7]; 10 μM Ly294002, 5 d, FIG. 3",increased
same,total endocrine cell surface area,"[7]; 10 μM Ly294002, 5 d, FIG. 3",significantly increased
same,"endocrine surface area for all hormones (insulin; somatostatin and pp; glucagon), percent of total ICC surface area","[7]; 10 μM Ly294002, 5 d, FIG. 3, n=3",significantly increased
same,number of hormone producing cells growing in ICCs,[7]; blockade of PI3K activity in culture,significantly increased
same,stability in culture medium,[8],very stable
same,cytotoxicity (general statement),[9],no significant cytotoxicity
COC[C@H]1OC(=O)c2coc3c2[C@@]1(C)C1=C(C3=O)[C@@H]2CCC(=O)[C@@]2(C)C[C@H]1OC(C)=O [wortmannin],"control PI3K activity eliminated, p85 immunoprecipitates",[1]; FIG. 7,90%
same,stability in culture medium,[8],much less stable
same,cytotoxicity and apoptosis,"[9]; continuous treatment 5 d, 100 nM wortmannin, 10 μM Ly294002",does not cause notable cytotoxity nor induce apoptosis
"NC(=O)c1cccnc1 [NIC, nicotinamide]","amount of PI3K activity in p85 immunoprecipitates, lower than untreated cells","[1]; 10 mM NIC, 5 d, FIG. 7",about fivefold
same,inducibility of cellular PI3K activity by growth factors and de novo formation of PIP3,[1]; NIC-treated cells,significantly reduced
same,basal level of PIP3 versus control cells,"[2]; 10 mM NIC, 5 d, FIG. 6",significantly lower
same,direct inhibitory effect on PI3K activity in vitro,[10],not a direct inhibitor
same,effect on endocrine function in purified fetal islets,[11],no effect
same,actual level of p85 protein,[12],no change
same,insulin and glucagon gene transcription and insulin protein biosynthesis,[3],an increase
CO[C@@]12[C@H](COC(N)=O)C3=C(C(=O)C(C)=C(N)C3=O)N1C[C@@H]1N[C@@H]12 [mitomycin C],basal PI3K activity in fetal islet cells significantly affected,[1]; mitomycin C-treated cells,neither
same,insulin protein expression,"[5]; 2 mg/ml mitomycin C for 5 d, FIG. 4B",does not affect

# Reference: patent publication US6413773B1, “Phosphatidylinositol 3-kinase inhibitors as stimulators of endocrine differentiation” (The Regents of the University of California, priority 1998, dated 2002)
